What follows are compounds tested against T1, recombinant IL4I1 (Homo sapiens, UniProt Q96RQ9) (assay: IL4I1 Enzymatic Assay (Amplex Red/HRP coupled H2O2 detection)). Conditions: 240 min; four-hour pre-incubation with compound; 1 nM IL4I1, 1 mM each Phe/Tyr/Trp; ten-point titration; fluorescence readout; read-out: Potency EC50 (nM) (240 min).
T1 construct: purchased R&D Systems 5684-AO-020
T1 sequence (Q96RQ9 22-567): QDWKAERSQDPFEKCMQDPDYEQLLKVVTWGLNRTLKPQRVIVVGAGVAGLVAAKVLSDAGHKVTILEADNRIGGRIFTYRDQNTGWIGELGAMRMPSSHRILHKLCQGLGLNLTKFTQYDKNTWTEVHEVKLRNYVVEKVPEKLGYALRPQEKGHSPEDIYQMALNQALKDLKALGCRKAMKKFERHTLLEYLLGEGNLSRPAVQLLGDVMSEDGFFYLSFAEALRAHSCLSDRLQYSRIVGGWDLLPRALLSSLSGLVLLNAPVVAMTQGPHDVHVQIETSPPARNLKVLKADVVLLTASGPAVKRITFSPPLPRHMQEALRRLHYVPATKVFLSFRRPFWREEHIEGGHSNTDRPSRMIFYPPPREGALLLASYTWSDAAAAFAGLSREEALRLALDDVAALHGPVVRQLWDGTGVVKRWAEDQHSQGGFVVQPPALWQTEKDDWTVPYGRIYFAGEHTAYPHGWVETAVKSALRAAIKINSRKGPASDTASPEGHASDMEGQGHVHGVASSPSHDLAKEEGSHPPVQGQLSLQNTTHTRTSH
Format: biochemical
Procedure: Interleukin 4 inducible protein 1 (IL4I1) is an L-amino oxidase that catalyzes the oxidation of aromatic residues (Phe, Trp and Tyr): L-amino acid+H2O+O2→2-oxo acid+NH3+H2O2. Equal molar of H2O2 and the corresponding alpha-ketoacid are produced when IL4I1 and substrate are added. In this assay, the hydrogen peroxide generated by IL4I1 is then detected through a coupled reaction with Amplex Red (10-acetyl-3,7-dihydroxyphenoxazine) and […] (HRP) to produce Resorufin product that could be detected in the form of fluorescence signals. The assessment of the inhibitory effect of small molecules (EC50) on IL4I1 is measured by the effectiveness of the compounds to inhibit the production of H2O2.
Using this assay, the potency (EC50) of each compound was determined from a ten-point (1:3 serial dilution) titration curve using the following outlined procedure. To each well of a black flat-bottom Greiner (Cat #781076) 384 well-plate, 25 nL of compound (0.1% DMSO in final assay volume of 25 μL) was dispensed, followed by the addition of 12.5 μL of 1x assay buffer (50 mM Hepes 7.0 and 0.005% Tween20 (Sigma, Cat #P8341; low peroxide grade)) containing 2 nM of recombinant IL4I1 (R&D Systems, Cat #5684-AO-020). Plates were placed in an ambient temperature humidified chamber for a four-hour pre-incubation with compound. Subsequently, each reaction was initiated by the addition of 12.5 μL 1x assay buffer containing 2 mM of each aromatic amino acids (Phe/Tyr/Trp), 0.1 mM Amplex Red and 2 U/mL of HRP. The final reaction in each well of 25 μL consists of 1 nM of IL411, 1 mM of each residues (Phe, Tyr and Trp), 0.05 mM Amplex Red and 1 U/mL of HRP. It should be noted that the concentrations of Amplex Red and HRP used here are in excess such that the conversion of H2O2 to Resorufin product occurs instantaneously and non-rate limiting. Reactions were allowed to proceed for 120 minutes followed by fluorescence readout on a Spectramax with the following set parameters: 544 nm excitation/590 nm emission, 570 nm cutoff (EnVision is an alternative reader). Dose-response curves were generated by plotting percent effect (% product conversion; Y-axis) vs. Log10 compound concentrations (X-axis). EC50 values were calculated using a non-linear regression, four-parameters sigmoidal dose-response model and are shown in Table 16.

Row | EC50 | SMILES
1 | 21 nM | CC(=O)NC1CCc2ccc(Cn3c(=O)[nH]c4ccccc43)cc21 (single isomer, unassigned) [Example 45, N-(6-((2-oxo-2,3-dihydro-1H-benzo[d]imidazol-1-yl)methyl)-2,3-dihydro-1H-inden-1-yl)acetamide]
2 | 9 nM | CNC(=O)C1CCc2cc(Cn3c(=O)[nH]c4ccccc43)ccc21 (single isomer, unassigned) [Example 46, N-methyl-5-((2-oxo-2,3-dihydro-1H-benzo[d]imidazol-1-yl)methyl)-2,3-dihydro-1H-indene-1-carboxamide]
3 | 10 nM | O=c1[nH]c2ccccc2n1Cc1ccc(Cn2nncc2CO)cc1 (single isomer, unassigned) [Example 81, 1-(4-((5-(hydroxymethyl)-1H-1,2,3-triazol-1-yl)methyl)benzyl)-1,3-dihydro-2H-benzo[d]imidazol-2-one]
4 | 10 nM | O=C1CCCN1Cc1ccc(Cn2c(=O)[nH]c3ccc(F)cc32)cc1 (single isomer, unassigned) [Example 84, 6-fluoro-1-(4-((2-oxopyrrolidin-1-yl)methyl)benzyl)-1,3-dihydro-2H-benzo[d]imidazol-2-one]
5 | 389 nM | O=C1CCCN1Cc1ccc(Cn2c(=O)[nH]c3cc(F)ccc32)cc1 (single isomer, unassigned) [Example 85, 5-fluoro-1-(4-((2-oxopyrrolidin-1-yl)methyl)benzyl)-1,3-dihydro-2H-benzo[d]imidazol-2-one]
6 | 4 nM | Cc1ccc(C2CC2Cn2c(=O)[nH]c3ccccc32)nc1 (single isomer, unassigned) [Example 111, 1-((2-(5-methylpyridin-2-yl)cyclopropyl)methyl)-1,3-dihydro-2H-benzo[d]imidazol-2-one]
7 | 13 nM | O=C1CCCN1Cc1ccc(Cn2c(=O)[nH]c3ccccc32)cc1 [Example 1, 1-(4-((2-oxopyrrolidin-1-yl)methyl)benzyl)-1,3-dihydro-2H-benzo[d]imidazol-2-one]
8 | 13 nM | O=C1C=CCN1Cc1ccc(Cn2c(=O)[nH]c3ccccc32)cc1 [Example 2, 1-(4-((2-oxo-2,5-dihydro-1H-pyrrol-1-yl)methyl)benzyl)-1,3-dihydro-2H-benzo[d]imidazol-2-one]
9 | 53 nM | O=c1[nH]c2ccccc2n1Cc1ccc(Cc2nnco2)cc1 [Example 3, 1-(4-((1,3,4-oxadiazol-2-yl)methyl)benzyl)-1,3-dihydro-2H-benzo[d]imidazol-2-one]
10 | 6 nM | O=c1[nH]c2ccccc2n1Cc1ccc(Cc2nnco2)c(Cl)c1 [Example 4, 1-(4-((1,3,4-oxadiazol-2-yl)methyl)-3-chlorobenzyl)-1,3-dihydro-2H-benzo[d]imidazol-2-one]
11 | 15 nM | COc1cc(CNC(C)=O)ccc1Cn1c(=O)[nH]c2ccccc21 [Example 5, N-(3-methoxy-4-((2-oxo-2,3-dihydro-1H-benzo[d]imidazol-1-yl)methyl)benzyl)acetamide]
12 | 6 nM | CS(=O)(=O)NCc1ccc(Cn2c(=O)[nH]c3ccccc32)s1 [Example 6, N-((5-((2-oxo-2,3-dihydro-1H-benzo[d]imidazol-1-yl)methyl)thiophen-2-yl)methyl)methanesulfonamide]
13 | 8 nM | COc1cc(Cn2c(=O)[nH]c3ccccc32)ccc1CNC(C)=O [Example 7, N-({2-methoxy-4-[(2-oxo-2,3-dihydro-1H-benzimidazol-1-yl)methyl]phenyl}methyl)acetamide]
14 | 11 nM | O=C1CCCN1Cc1ccc(Cn2c(=O)[nH]c3ccccc32)c(F)c1 [Example 8, 1-({2-fluoro-4-[(2-oxopyrrolidin-1-yl)methyl]phenyl}methyl)-1,3-dihydro-2H-benzimidazol-2-one]
15 | 16 nM | O=C1CCCN1Cc1ccc(Cn2c(=O)[nH]c3ccccc32)cc1F [Example 9, 1-({3-fluoro-4-[(2-oxopyrrolidin-1-yl)methyl]phenyl}methyl)-1,3-dihydro-2H-benzimidazol-2-one]
16 | 22 nM | O=C1NCc2ccc(Cn3c(=O)[nH]c4ccccc43)cc21 [Example 10, 1-[(3-oxo-2,3-dihydro-1H-isoindol-5-yl)methyl]-1,3-dihydro-2H-benzimidazol-2-one]

Row | EC50 | SMILES
17 | 6 nM | CC(=O)NCc1ccc(Cn2c(=O)[nH]c3ccccc32)cc1 [Example 11, N-(4-((2-oxo-2,3-dihydro-1H-benzo[d]imidazol-1-yl)methyl)benzyl)acetamide]
18 | 8 nM | CS(=O)(=O)NCc1ccc(Cn2c(=O)[nH]c3ccccc32)cc1 [Example 12, N-(4-((2-oxo-2,3-dihydro-1H-benzo[d]imidazol-1-yl)methyl)benzyl)methanesulfonamide]
19 | 6 nM | CNC(=O)c1csc(Cn2c(=O)[nH]c3ccccc32)c1 [Example 13, N-methyl-5-((2-oxo-2,3-dihydro-1H-benzo[d]imidazol-1-yl)methyl)thiophene-3-carboxamide]
20 | 2 nM | O=C(NC1CC1)c1ccc(Cn2c(=O)[nH]c3ccccc32)s1 [Example 14]
21 | 19 nM | CC(=O)N[C@H](C)c1ccc(Cn2c(=O)[nH]c3ccccc32)cc1 [Example 15, (R)—N-(1-(4-((2-oxo-2,3-dihydro-1H-benzo[d]imidazol-1-yl)methyl)phenyl)ethyl)acetamide]
22 | 24 nM | CC[C@@H](NC(C)=O)c1ccc(Cn2c(=O)[nH]c3ccccc32)cc1 [Example 16, (R)-N-(1-(4-((2-oxo-2,3-dihydro-1H-benzo[d]imidazol-1-yl)methyl)phenyl)propyl)acetamide]
23 | 12 nM | CNC(=O)c1cc(Cn2c(=O)[nH]c3ccccc32)ccc1OC [Example 17, 2-methoxy-N-methyl-5-((2-oxo-2,3-dihydro-1H-benzo[d]imidazol-1-yl)methyl)benzamide]
24 | 8 nM | O=C1CCCN1Cc1ccc(Cn2c(=O)[nH]c3ccccc32)cc1Cl [Example 18, 1-(3-chloro-4-((2-oxopyrrolidin-1-yl)methyl)benzyl)-1,3-dihydro-2H-benzo[d]imidazol-2-one]
25 | 14 nM | O=C1CCCN1Cc1ccc(Cn2c(=O)[nH]c3ccccc32)cc1I [Example 19, 1-(3-iodo-4-((2-oxopyrrolidin-1-yl)methyl)benzyl)-1,3-dihydro-2H-benzo[d]imidazol-2-one]
26 | 7 nM | O=c1[nH]c2ccccc2n1Cc1ccc(CN2CCOCS2(=O)=O)cc1 [Example 20, 1-(4-((3,3-dioxido-1,3,4-oxathiazinan-4-yl)methyl)benzyl)-1,3-dihydro-2H-benzo[d]imidazol-2-one]
27 | 8 nM | CN(Cc1ccc(Cn2c(=O)[nH]c3ccccc32)cc1)S(C)(=O)=O [Example 21, N-methyl-N-({4-[(2-oxo-2,3-dihydro-1H-benzimidazol-1-yl)methyl]phenyl}methyl) methanesulfonamide]
28 | 8 nM | O=C1CC2(CC2)CN1Cc1ccc(Cn2c(=O)[nH]c3ccccc32)cc1 [Example 22, 1-({4-[(6-oxo-5-azaspiro[2.4]heptan-5-yl)methyl]phenyl}methyl)-1,3-dihydro-2H-benzimidazol-2-one]
29 | 18 nM | O=C1CCCN1Cc1c(F)cc(Cn2c(=O)[nH]c3ccccc32)cc1F [Example 23, 1-({3,5-difluoro-4-[(2-oxopyrrolidin-1-yl)methyl]phenyl}methyl)-1,3-dihydro-2H-benzimidazol-2-one]
30 | 24 nM | N#Cc1cc(Cn2c(=O)[nH]c3ccccc32)ccc1CN1CCCC1=O [Example 24, 5-((2-oxo-2,3-dihydro-1H-benzo[d]imidazol-1-yl)methyl)-2-((2-oxopyrrolidin-1-yl)methyl) benzonitrile]
31 | 47 nM | O=C1CCCN1Cc1ncc(Cn2c(=O)[nH]c3ccccc32)cc1Cl [Example 25, 1-((5-chloro-6-((2-oxopyrrolidin-1-yl)methyl)pyridin-3-yl)methyl)-1,3-dihydro-2H-benzo[d]imidazol-2-one]

Source: patent publication US12454525B2, “IL4I1 inhibitors and methods of use” (Merck Sharp & Dohme LLC, priority 2020, dated 2025)
